# In ChEMBL document CHEMBL1821579, “Discovery of amide replacements that improve activity and metabolic stability of a bis-amide smoothened antagonist hit” (Bioorg Med Chem Lett, 2011):
# Activity calls are given as the source filed them. The rule behind the calls is not given here.
# How the values were obtained:
# Protein smoothened [1] = biological target: Protein smoothened (Homo sapiens, UniProt Q99835); test: Antagonist activity at human SMO expressed in HEPM cells assessed as reduction of GLI expression after 24 hrs by Quantigene assay; type: functional, cell-based
# Protein smoothened (Homo sapiens, UniProt Q99835), sequence (Q99835 whole entry): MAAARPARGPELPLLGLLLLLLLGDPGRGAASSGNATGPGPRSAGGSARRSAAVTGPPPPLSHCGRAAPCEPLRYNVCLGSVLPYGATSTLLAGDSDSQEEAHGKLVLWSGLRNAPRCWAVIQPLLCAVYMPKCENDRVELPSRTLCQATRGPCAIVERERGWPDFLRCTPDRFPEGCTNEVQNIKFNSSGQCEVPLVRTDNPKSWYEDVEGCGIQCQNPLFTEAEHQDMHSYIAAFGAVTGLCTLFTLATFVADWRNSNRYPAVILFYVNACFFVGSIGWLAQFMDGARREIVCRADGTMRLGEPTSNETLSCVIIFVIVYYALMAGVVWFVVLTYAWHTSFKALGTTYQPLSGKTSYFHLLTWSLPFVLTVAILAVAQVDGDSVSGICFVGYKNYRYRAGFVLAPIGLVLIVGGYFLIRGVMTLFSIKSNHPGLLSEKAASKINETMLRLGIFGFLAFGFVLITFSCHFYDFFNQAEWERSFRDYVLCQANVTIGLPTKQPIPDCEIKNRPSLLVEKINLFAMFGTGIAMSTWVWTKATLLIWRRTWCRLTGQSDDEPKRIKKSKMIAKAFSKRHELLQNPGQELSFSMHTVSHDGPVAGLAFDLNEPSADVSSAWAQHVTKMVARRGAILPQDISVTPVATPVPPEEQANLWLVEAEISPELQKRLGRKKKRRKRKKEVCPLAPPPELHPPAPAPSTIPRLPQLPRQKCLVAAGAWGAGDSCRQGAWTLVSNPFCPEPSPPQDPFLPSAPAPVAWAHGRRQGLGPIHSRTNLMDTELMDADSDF
# [2] = biological target: Protein smoothened (Rattus norvegicus) (UniProt P97698); test: Antagonist activity at SMO in rat hepatocyte; type: functional, cell-based
# Protein smoothened (Rattus norvegicus), sequence (P97698 whole entry): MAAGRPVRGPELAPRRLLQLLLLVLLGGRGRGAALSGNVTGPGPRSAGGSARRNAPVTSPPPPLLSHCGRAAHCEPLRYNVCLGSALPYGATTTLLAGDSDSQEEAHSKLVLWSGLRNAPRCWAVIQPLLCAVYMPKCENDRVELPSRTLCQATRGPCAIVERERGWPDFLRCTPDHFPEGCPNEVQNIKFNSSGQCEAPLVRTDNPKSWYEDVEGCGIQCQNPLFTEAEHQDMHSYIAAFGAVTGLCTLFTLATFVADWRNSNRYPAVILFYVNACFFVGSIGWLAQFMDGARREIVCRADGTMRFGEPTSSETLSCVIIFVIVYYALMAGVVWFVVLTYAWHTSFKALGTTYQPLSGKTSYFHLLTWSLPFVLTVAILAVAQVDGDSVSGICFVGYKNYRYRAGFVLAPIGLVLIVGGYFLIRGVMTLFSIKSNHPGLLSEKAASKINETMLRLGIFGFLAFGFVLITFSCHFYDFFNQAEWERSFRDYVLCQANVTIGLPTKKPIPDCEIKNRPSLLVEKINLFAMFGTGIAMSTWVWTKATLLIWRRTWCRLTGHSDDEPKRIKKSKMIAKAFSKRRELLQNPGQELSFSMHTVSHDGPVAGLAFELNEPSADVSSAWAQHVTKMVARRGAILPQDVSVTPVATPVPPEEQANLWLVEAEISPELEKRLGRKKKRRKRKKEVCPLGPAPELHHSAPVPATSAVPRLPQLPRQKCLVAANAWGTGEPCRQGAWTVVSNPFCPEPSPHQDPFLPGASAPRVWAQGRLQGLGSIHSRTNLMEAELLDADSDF
# [3] = Clearance in rat liver microsomes assessed as compound metabolized after 30 mins; type: ADME, Microsome; details: read-out: Activity
# Protein smoothened [4] = biological target: Protein smoothened (Mus musculus, UniProt P56726); test: Antagonist activity at mouse SMO expressed in NIH/3T3 cells transfected with Gli-dependent luciferase-reporter after 15 hrs by luciferase reporter gene assay using luminometer; type: functional, cell-based
# Protein smoothened (Mus musculus, UniProt P56726), sequence (P56726 whole entry): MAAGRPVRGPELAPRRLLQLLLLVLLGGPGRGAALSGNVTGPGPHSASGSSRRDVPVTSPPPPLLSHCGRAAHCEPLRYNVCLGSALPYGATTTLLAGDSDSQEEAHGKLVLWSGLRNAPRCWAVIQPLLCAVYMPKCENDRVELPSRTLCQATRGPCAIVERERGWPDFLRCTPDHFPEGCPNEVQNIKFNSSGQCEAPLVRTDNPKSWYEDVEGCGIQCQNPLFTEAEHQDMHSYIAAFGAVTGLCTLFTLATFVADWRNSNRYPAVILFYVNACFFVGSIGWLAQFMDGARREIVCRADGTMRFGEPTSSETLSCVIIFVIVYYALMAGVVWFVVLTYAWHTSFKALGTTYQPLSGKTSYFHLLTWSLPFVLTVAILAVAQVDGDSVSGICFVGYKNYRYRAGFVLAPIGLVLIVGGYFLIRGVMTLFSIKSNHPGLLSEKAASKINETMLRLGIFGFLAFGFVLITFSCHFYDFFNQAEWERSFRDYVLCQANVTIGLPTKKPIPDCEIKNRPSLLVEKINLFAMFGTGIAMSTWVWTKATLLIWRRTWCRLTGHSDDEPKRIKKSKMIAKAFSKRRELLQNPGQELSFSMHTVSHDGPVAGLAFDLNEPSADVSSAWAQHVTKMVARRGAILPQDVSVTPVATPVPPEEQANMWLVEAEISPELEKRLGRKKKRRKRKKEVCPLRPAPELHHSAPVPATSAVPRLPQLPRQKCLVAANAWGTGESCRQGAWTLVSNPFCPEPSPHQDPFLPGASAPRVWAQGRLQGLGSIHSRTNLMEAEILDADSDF
# [5] = Clearance in rat at 0.5 mg/kg, iv; type: ADME, organism-based; parameters: dose 0.5 mg/kg, route intravenous; details: in vivo
# [6] = Oral bioavailability in rat at 5 mg/kg; type: ADME, organism-based; details: in vivo
# [7] = Metabolic stability in rat hepatocyte assessed as compound remaining at 30 mins; type: ADME, cell-based; details: hepatocytes, read-out: Stability
SMILES,IC50 (Protein smoothened [1]) [nM],also measured
O=C(Nc1ccc(-c2nnc(-c3ccccc3)o2)cc1)c1ccccc1Cl,89,
O=C(Nc1ccc(-c2csc(-c3ccccc3)n2)cc1)c1ccccc1Cl,109,
O=C(Nc1ccc(/C=C/c2ccccc2)cc1)c1ccccc1Cl,49,
O=C(Nc1ccc(-c2cc(-c3ccccc3)ncn2)cc1)c1ccccc1Cl,48,
CC(=O)Nc1ccc(NC(=O)c2ccccc2Cl)cc1,,inhibition [2]: inactive
O=C(Nc1ccc(-c2ccnc(-c3ccccc3)c2)cc1)c1ccccc1Cl,93,
O=C(Nc1ccc(-c2nc(-c3ccccc3)c(C(F)(F)F)o2)cc1)c1ccccc1Cl,31,metabolised at 0.5 h [3]: < 10%; IC50 (Protein smoothened [4]): 17 nM; clearance [5]: 3.83 mL/min/kg; bioavailability [6]: 47%
O=C(Nc1ccc(-c2nc(-c3ccccc3)co2)cc1)c1ccccc1Cl,63,
O=C(Nc1ccc(-c2ccnc(-c3ccccc3)n2)cc1)c1ccccc1Cl,27,
O=C(Nc1ccc(-c2cncc(-c3ccccc3)c2)cc1)c1ccccc1Cl,28,
O=C(Nc1ccc(-c2ncc(-c3ccccc3)o2)cc1)c1ccccc1Cl,40,

# The next lines start with results.
IC50 (Protein smoothened [1]) [nM],SMILES,also measured
14,O=C(Nc1ccc(CC(O)c2ccccc2)cc1)c1ccccc1Cl (racemic),
27,O=C(Nc1ccc(-c2nc(-c3ccccc3)cs2)cc1)c1ccccc1Cl,
79,O=C(Cc1ccc(NC(=O)c2ccccc2Cl)cc1)c1ccccc1,
93,O=C(Nc1ccc(-c2coc(-c3ccccc3)n2)cc1)c1ccccc1Cl,
6.4,O=C(Nc1ccc(-c2cccc(-c3ccccc3)c2)cc1)c1ccccc1Cl,
7.2,O=C(Nc1ccc(-c2cc(-c3ccccc3)ccn2)cc1)c1ccccc1Cl,metabolised at 0.5 h [3]: 41%; IC50 (Protein smoothened [4]): 26 nM; clearance [5]: 2.83 mL/min/kg; bioavailability [6]: 27%
44,Cc1oc(-c2ccc(NC(=O)c3ccccc3Cl)cc2)nc1-c1ccccc1,
37,O=C(Nc1ccc(-c2nccc(-c3ccccc3)n2)cc1)c1ccccc1Cl,
33,O=C(Nc1ccc(-c2cccc(-c3ccccc3)n2)cc1)c1ccccc1Cl,
13,O=C(Nc1ccc(NC(=O)c2ccccc2Cl)cc1)c1ccccc1,metabolised at 0.5 h [3]: < 10%; clearance [5]: 23.3 mL/min/kg; remaining at 0.5 h [7]: 3%; bioavailability [6]: 12%
